Experimental findings from patent US12049467B2 (The Johns Hopkins University, priority 2021, dated 2024) are described below.

The Emax is the greatest response seen or fitted, relative to the assay's reference.

Bounds are passed on as bounds.

T1 sequence (P34903 29-492): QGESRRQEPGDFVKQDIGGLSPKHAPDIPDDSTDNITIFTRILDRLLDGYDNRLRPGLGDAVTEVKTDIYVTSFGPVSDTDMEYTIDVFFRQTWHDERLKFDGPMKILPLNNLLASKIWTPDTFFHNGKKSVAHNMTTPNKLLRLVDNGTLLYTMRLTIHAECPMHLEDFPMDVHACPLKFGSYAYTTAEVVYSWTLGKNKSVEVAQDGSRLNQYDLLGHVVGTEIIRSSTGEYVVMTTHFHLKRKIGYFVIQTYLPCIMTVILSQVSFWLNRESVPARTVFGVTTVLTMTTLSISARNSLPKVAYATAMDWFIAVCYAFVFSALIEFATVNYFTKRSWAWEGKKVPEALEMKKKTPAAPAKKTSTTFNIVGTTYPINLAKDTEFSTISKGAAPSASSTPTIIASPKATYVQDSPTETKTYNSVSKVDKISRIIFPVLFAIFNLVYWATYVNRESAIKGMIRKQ
T1 sequence (P47870 25-512 partner limits assumed): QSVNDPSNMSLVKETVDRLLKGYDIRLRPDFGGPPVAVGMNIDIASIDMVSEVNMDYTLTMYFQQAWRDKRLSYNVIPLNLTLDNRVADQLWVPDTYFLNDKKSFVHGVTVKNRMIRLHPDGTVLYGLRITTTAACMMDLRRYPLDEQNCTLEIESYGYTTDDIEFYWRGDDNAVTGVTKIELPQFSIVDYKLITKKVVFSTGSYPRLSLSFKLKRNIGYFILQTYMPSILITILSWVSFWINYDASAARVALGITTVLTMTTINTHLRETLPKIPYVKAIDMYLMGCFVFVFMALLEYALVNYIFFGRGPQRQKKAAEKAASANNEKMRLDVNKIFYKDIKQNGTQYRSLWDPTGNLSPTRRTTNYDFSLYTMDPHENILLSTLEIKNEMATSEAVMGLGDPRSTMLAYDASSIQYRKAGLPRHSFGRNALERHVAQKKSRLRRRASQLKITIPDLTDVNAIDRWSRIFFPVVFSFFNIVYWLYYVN
T1 sequence (P18507 40-475): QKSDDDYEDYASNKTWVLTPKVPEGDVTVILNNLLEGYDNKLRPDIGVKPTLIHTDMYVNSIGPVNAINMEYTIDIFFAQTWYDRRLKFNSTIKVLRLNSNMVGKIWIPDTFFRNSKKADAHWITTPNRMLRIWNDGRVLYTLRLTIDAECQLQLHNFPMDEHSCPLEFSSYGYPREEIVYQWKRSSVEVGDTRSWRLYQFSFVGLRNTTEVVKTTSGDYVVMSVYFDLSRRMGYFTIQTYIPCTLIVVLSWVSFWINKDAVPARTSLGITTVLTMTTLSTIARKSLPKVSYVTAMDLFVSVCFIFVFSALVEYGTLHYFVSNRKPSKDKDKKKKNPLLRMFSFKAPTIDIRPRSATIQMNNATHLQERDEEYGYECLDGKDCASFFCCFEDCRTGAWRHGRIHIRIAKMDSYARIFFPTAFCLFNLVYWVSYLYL

This test addresses T1, GABAA (α3β2γ2) subtype (Homo sapiens, UniProt P18507+P34903).
T1 construct: expressed in transfected cells
The test can be described thus: Automated patch-clamp (QPatch) modulation of GABA-activated currents in cells stably transfected with GABAA (α3β2γ2) channels. The settings on record: stably transfected Ltk cells, 2.0 μM GABA (submaximal), whole-cell patch, holding potential −80 mV; Emax = upper asymptote of dose-response fit. Type of test: cell-based. Here is the method: Modulatory effects of the compounds of this disclosure were investigated using cells stably transfected with GABA-activated channels of the GABAA (α3β2γ2) subtype together with submaximal GABA concentrations. Expression of GABA receptor were induced by adding Dexamethasone to the cells for 24 to 48 h before experimentation. In general, cells were passaged at a confluence of about 80 to 90%. For electrophysiological measurements cells were harvested at a confluence of about 80 to 90% from sterile culture flasks containing culture complete medium. Cells were transferred as suspension in PBS to the QPatch 16X or QPatch HTX system to the centrifuge/washer directly. Cells were incubated at 37° C. in a humidified atmosphere with 5% CO2 (rel. humidity about 95%). The cells were continuously maintained in and passaged in sterile culture flasks containing a 1:1 mixture of Dulbecco's modified eagle medium and nutrient mixture D-MEM/F-12 (1×, liquid, with L-Glutamine), supplemented with 10% foetal bovine serum and 1.0% Penicillin/Streptomycin solution and neomycin. The 1× bath solution was made at least every 5 days out of a sterile lox bath solution, which had been prepared prior to the experimental start of the present study and stored at 1° C. to 9° C. The final bath solution included Sodium Chloride 137 mM, Potassium Chloride 4 mM, Calcium Chloride 1.8 mM, Magnesium Chloride 1 mM, HEPES 10 mM, D-Glucose 10 mM, pH (NaOH) 7.4. The 1× intracellular solution was thawed every day and includes Potassium Chloride 130 mM, Magnesium Chloride 1 mM, Mg-ATP 5 mM, HEPES 10 mM, EGTA 5 Mm, pH (KOH) 7.2. Automated patch-clamping: Cells were transferred as suspension in serum-free medium to the QPatch HTX system and kept in the cell storage tank during experiments. All solutions applied to cells including the intracellular solution were maintained at room temperature (19° C. to 30° C.). After formation of a Gigaohm seal between the patch electrodes and transfected individual Ltk cells were ruptured to assure electrical access to the cell interior (whole-cell patch-configuration). Inward currents were measured upon application of 2.0 μM GABA to patch-clamped cells for 4 s. During the entire experiment the cells were voltage-clamped at a holding potential of −80 mV. For the analysis of test items, GABAA receptors were stimulated by 2.0 μM GABA and test item combinations described below. Thirty-second prewash steps with test items was performed in between two agonist applications. The dose-response curve was fit with a sigmoidal three parameter equation current=Emax/1+10^((Log EC50−X)*H) where X is the compound concentration, Emax the upper asymptote, EC50 the concentration of test item at half maximal effect, and H is the Hill coefficient. SigmaPlot 11.0 was used for construction of curve.
Background: In patch-clamp work, channel activity is measured electrically.
`Cc1ccc2c(c1)C(c1ccccc1F)=NCc1c(C(=O)O)cnn1-2` [Example 18, 6-(2-fluorophenyl)-8-methyl-4H-pyrazolo[1,5-a][1,4]benzodiazepine-3-carboxylic acid]: the Emax is more than 100%. With `C[Si](C)(C)c1ccc2c(c1)C(c1ccccc1F)=NCc1cc(C(=O)O)nn1-2` [Example 8, 6-(2-fluorophenyl)-8-trimethylsilyl-4H-pyrazolo[1,5-a][1,4]benzodiazepine-2-carboxylic acid], the Emax is less than 50%. As for `O=C(O)c1cc2n(n1)-c1ccc(Cl)cc1C(c1ccccc1F)=[N+]([O-])C2` [Example 23, 8-chloro-6-(2-fluorophenyl)-5-oxido-4H-pyrazolo[1,5-a][1,4]benzodiazepin-5-ium-2-carboxylic Acid], the Emax was more than 100%. In the case of `NS(=O)(=O)NCCNC(=O)c1cc2n(n1)-c1ccc(Cl)cc1C(c1ccccc1F)=NC2` [Example 27, 8-chloro-6-(2-fluorophenyl)-N-[2-(sulfamoylamino)ethyl]-4H-pyrazolo[1,5-a][1,4]benzodiazepine-2-carboxamide], the Emax lay within 51 to 100%. The value for `O=C(O)c1nn2c(c1Cl)CN=C(c1ccccc1F)c1cc(Cl)ccc1-2` [Example 22, 3,8-dichloro-6-(2-fluorophenyl)-4H-pyrazolo[1,5-a][1,4]benzodiazepine-2-carboxylic acid] was 51 to 100%; that for `O=C(O)c1cc2n(n1)-c1cc(Cl)ccc1C(c1ccccc1F)=NC2` [Example 12] was less than 50%. As to `NC(=O)NCCNC(=O)c1cnn2c1CN=C(c1ccccc1F)c1cc(Cl)ccc1-2` [Example 26, 8-chloro-6-(2-fluorophenyl)-N-(2-ureidoethyl)-4H-pyrazolo[1,5-a][1,4]benzodiazepine-3-carboxamide], the Emax was more than 100%. On to `O=C(O)c1cc2n(n1)-c1ccc(Cl)cc1C(c1c(F)cccc1F)=NC2` [Example 14, 8-chloro-6-(2,6-difluorophenyl)-4H-pyrazolo[1,5-a][1,4]benzodiazepine-2-carboxylic acid], for which the Emax lay in the range of 51 to 100%.

Regarding `O=C(O)c1cc2n(n1)-c1ccc(OC(F)(F)F)cc1C(c1ccccc1F)=NC2` [Example 11, 6-(2-fluorophenyl)-8-(trifluoromethoxy)-4H-pyrazolo[1,5-a][1,4]benzodiazepine-2-carboxylic acid], the Emax is more than 100%.

Turning to `Cc1c(C(=O)O)nn2c1CN=C(c1ccccc1F)c1cc(Cl)ccc1-2` [Example 19, 12-Chloro-9-(2-fluorophenyl)-5-methyl-2,3,8-triazatricyclo[8.4.0.0^2,6]tetradeca-1(10),3,5,8,11,13-hexaene-4-carboxylic Acid], the Emax was more than 100%. The value for `O=C(O)c1cc2n(n1)-c1ccc(Br)cc1C(c1ccccc1F)=NC2` [Example 7, 8-bromo-6-(2-fluorophenyl)-4H-pyrazolo[1,5-a][1,4]benzodiazepine-2-carboxylic acid] was more than 100%. Regarding `O=C(O)c1cc2n(n1)-c1ccc(Cl)cc1C(c1ccccc1F)=NC2` [Example 1, 8-chloro-6-(2-fluorophenyl)-4H-pyrazolo[1,5-a][1,4]benzodiazepine-2-carboxylic acid], the Emax is more than 100%.

Regarding `C#Cc1ccc2c(c1)C(c1ccccc1F)=NCc1cc(C(=O)O)nn1-2` [Example 2, 8-ethynyl-6-(2-fluorophenyl)-4H-pyrazolo[1,5-a][1,4]benzodiazepine-2-carboxylic acid], the Emax was more than 100%.

As for `O=C(O)c1cc2n(n1)-c1ccc(Cl)cc1C(c1ccccc1Br)=NC2` [Example 13, 6-(2-bromophenyl)-8-chloro-4H-pyrazolo[1,5-a][1,4]benzodiazepine-2-carboxylic acid], the Emax was more than 100%. The value for `O=C(O)c1cc2n(n1)-c1ccc(Cl)cc1C(c1ccccc1Cl)=NC2` [Example 15, 8-chloro-6-(2-chlorophenyl)-4H-pyrazolo[1,5-a][1,4]benzodiazepine-2-carboxylic acid] was more than 100%. `O=C(O)c1cc2n(n1)-c1ccc(-c3ccccc3)cc1C(c1ccccc1F)=NC2` [Example 6, 6-(2-fluorophenyl)-8-phenyl-4H-pyrazolo[1,5-a][1,4]benzodiazepine-2-carboxylic acid]: the Emax was less than 50%. As to `O=C(O)c1cnn2c1CN=C(c1ccccc1F)c1cc(Cl)ccc1-2` [Example 17, 12-Chloro-9-(2-fluorophenyl)-2,3,8-triazatricyclo[8.4.0.0^2,6]tetradeca-1(10),3,5,8,11,13-hexaene-5-carboxylic Acid], the Emax was more than 100%.

Turning to `Cc1ccc2c(c1)C(c1ccccc1F)=NCc1cc(C(=O)O)nn1-2` [Example 4, 6-(2-fluorophenyl)-8-methyl-4H-pyrazolo[1,5-a][1,4]benzodiazepine-2-carboxylic acid], the Emax is more than 100%. The value for `CC1N=C(c2ccccc2F)c2cc(Cl)ccc2-n2nc(C(=O)O)cc21` (centres unmarked) [Example 20, 12-Chloro-9-(2-fluorophenyl)-7-methyl-2,3,8-triazatricyclo[8.4.0.0^2,6]tetradeca-1(10),3,5,8,11,13-hexaene-4-carboxylic acid] was more than 100%; that for `NC(=O)NCCNC(=O)c1cc2n(n1)-c1ccc(Cl)cc1C(c1ccccc1F)=NC2` [Example 25, 8-chloro-6-(2-fluorophenyl)-N-(2-ureidoethyl)-4H-benzo[f]pyrazolo[1,5-a][1,4]diazepine-2-carboxamide] was 51 to 100%. `O=C(O)c1cc2n(n1)-c1ccc(Cl)cc1C(c1ccccc1)=NC2` [Example 29, 8-chloro-6-phenyl-4H-benzo[f]pyrazolo[1,5-a][1,4]diazepine-2-carboxylic acid]: the Emax was more than 100%. For `O=C(O)c1cc2n(n1)-c1ccc(C3CC3)cc1C(c1ccccc1F)=NC2` [Example 3, 8-cyclopropyl-6-(2-fluorophenyl)-4H-pyrazolo[1,5-a][1,4]benzodiazepine-2-carboxylic acid], the Emax was more than 100%. The value for `O=C(O)c1cc2n(n1)-c1ccc(SC(F)(F)F)cc1C(c1ccccc1F)=NC2` [Example 9, 6-(2-fluorophenyl)-8-(trifluoromethylsulfanyl)-4H-pyrazolo[1,5-a][1,4]benzodiazepine-2-carboxylic acid] was more than 100%; that for `O=C(O)c1nn2c(c1Br)CN=C(c1ccccc1F)c1cc(Cl)ccc1-2` [Example 21, 3-bromo-8-chloro-6-(2-fluorophenyl)-4H-pyrazolo[1,5-a][1,4]benzodiazepine-2-carboxylic Acid] was more than 100%. Take `O=C(O)c1cc2n(n1)-c1ccc(C(F)(F)F)cc1C(c1ccccc1F)=NC2` [Example 10, 6-(2-fluorophenyl)-8-(trifluoromethyl)-4H-pyrazolo[1,5-a][1,4]benzodiazepine-2-carboxylic acid]: the Emax was more than 100%. With `NS(=O)(=O)NCCNC(=O)c1cnn2c1CN=C(c1ccccc1F)c1cc(Cl)ccc1-2` [Example 28, 8-chloro-6-(2-fluorophenyl)-N-[2-(sulfamoylamino)ethyl]-4H-pyrazolo[1,5-a][1,4]benzodiazepine-3-carboxamide], the Emax was more than 100%. On to `O=C(O)c1cc2n(n1)-c1ccc(Cl)cc1C(c1ccccc1F)=NC2O` (centres unmarked) [Example 24, 8-chloro-6-(2-fluorophenyl)-4-hydroxy-4H-benzo[f]pyrazolo[1,5-a][1,4]diazepine-2-carboxylic Acid], for which the Emax is less than 50%. Consider `O=C(O)c1cc2n(n1)-c1ccccc1C(c1ccccc1F)=NC2` [Example 5, 6-(2-fluorophenyl)-4H-pyrazolo[1,5-a][1,4]benzodiazepine-2-carboxylic acid], for which the Emax was less than 50%. For `O=C(O)c1cc2n(n1)-c1ccc(Cl)cc1C(c1cccc(F)c1F)=NC2` [Example 16], the Emax was more than 100%.
